# In US9533978B2 (AstraZeneca AB, priority 2009, dated 2017):
# Target: T1, Recombinant human TLR7 (Homo sapiens, UniProt Q9NYK1)
# T1 construct: expressed in transfected cells; host or cells: HEK293 cell line stably expressing the pNiFty2-SEAP reporter plasmid; TLR7 in vector pUNO, blasticidin selection
# T1 sequence (Q9NYK1 27-1049): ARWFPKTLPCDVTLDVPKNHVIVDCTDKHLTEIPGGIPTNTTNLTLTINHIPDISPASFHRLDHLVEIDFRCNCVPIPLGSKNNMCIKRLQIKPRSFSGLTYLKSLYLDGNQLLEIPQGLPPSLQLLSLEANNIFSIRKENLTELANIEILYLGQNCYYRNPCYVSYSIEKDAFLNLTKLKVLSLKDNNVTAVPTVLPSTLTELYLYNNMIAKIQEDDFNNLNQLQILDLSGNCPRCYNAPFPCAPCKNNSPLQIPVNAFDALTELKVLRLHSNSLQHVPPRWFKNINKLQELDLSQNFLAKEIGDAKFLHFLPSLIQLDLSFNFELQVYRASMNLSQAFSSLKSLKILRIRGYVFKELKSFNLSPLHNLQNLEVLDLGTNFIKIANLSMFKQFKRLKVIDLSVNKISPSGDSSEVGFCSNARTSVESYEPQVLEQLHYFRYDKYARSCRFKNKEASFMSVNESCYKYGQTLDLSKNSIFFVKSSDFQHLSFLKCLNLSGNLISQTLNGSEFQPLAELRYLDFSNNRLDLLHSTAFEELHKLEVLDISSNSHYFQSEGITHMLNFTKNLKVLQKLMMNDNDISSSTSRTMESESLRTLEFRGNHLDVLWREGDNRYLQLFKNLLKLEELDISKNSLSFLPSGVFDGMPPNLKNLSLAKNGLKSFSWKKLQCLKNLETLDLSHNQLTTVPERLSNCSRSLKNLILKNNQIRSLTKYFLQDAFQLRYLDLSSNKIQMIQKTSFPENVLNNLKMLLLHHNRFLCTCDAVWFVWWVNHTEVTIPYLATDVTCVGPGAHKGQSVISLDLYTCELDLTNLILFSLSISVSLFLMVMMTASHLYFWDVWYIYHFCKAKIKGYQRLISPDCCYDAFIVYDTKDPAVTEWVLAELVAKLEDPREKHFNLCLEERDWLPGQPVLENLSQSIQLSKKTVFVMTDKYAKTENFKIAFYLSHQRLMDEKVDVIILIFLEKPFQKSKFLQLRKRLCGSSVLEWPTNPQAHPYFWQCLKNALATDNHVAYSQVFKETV
# Assay: Human TLR7 assay (HEK293 SEAP reporter)
# Assay type: cell-based
# Conditions: degree of TLR7 activation; SEAP induction in HEK293 cells stably expressing recombinant human TLR7 and pNiFty2-SEAP reporter, overnight incubation at 37° C., 0.1% (v/v) DMSO
# Method: The ability of compounds to activate TLR7 in vitro was assessed using the human TLR7 assay described below.
# Recombinant human TLR7 was stably expressed in a HEK293 cell line already stably expressing the pNiFty2-SEAP reporter plasmid; integration of the reporter gene was maintained by selection with the antibiotic zeocin. The most common variant sequence of human TLR7 (represented by the EMBL sequence AF240467) was cloned into the mammalian cell expression vector pUNO and transfected into this reporter cell-line. Transfectants with stable expression were selected using the antibiotic blasticidin. In this reporter cell-line, expression of secreted alkaline phosphatase (SEAP) is controlled by an NFkB/ELAM-1 composite promoter comprising five NFkB sites combined with the proximal ELAM-1 promoter. TLR signaling leads to the translocation of NFkB and activation of the promoter results in expression of the SEAP gene. TLR7-specific activation was assessed by determining the level of SEAP produced following overnight incubation of the cells at 37° C. with the standard compound in the presence of 0.1% (v/v) dimethylsulfoxide (DMSO). Concentration dependent induction of SEAP production by compounds was expressed as the concentration of compound which produced half of the maximal level of SEAP induction for that compound (EC50).
row,SMILES,EC50
1,"CCCCCNc1nc(N)nc(C)c1Cc1ccc(OCCCN2CCN(C)CC2)cc1 [Example 10, 6-Methyl-5-(4-(3-(4-methylpiperazin-1-yl)propoxy)benzyl)-V-pentylpyrimidine-2,4-diamine]",0.0794 µM
2,CCCCCNc1nc(N)nc(C)c1Cc1cccc(OCCCN(C)C)c1 [Example 25],0.794 µM
3,"CCCCCNc1nc(N)nc(C)c1Cc1cccc(CN(C)C)c1 [Example 29, 5-(3-((Dimethylamino)methyl)benzyl)-6-methyl-N^4-pentylpyrimidine-2,4-diamine]",0.316 µM
4,CCCCCNc1nc(N)nc(C)c1Cc1ccc(OCCCN(C)C)cc1 [Example 4],0.0631 µM

# Next, values leading:
row,EC50,SMILES
1,0.02 µM,"CCC[C@@H](CO)Nc1nc(N)nc(C)c1Cc1ccc(CO)cc1OC [Example 40, (S)-2-(2-Amino-5-(4-(hydroxymethyl)-2-methoxybenzyl)-6-methyl-pyrimidin-4-ylamino)pentan-1-ol]"
2,0.0501 µM,"CCCCCNc1nc(N)nc(C)c1Cc1ccc(OCCCO)cc1OC [Example 36, 3-(4-((2-Amino-4-methyl-6-(pentylamino)pyrimidin-5-yl)methyl)-3-methoxyphenoxy)propan-1-ol]"
3,0.00398 µM,"CCCCCNc1nc(N)nc(C)c1Cc1ccc(CCCCN(C)C)cc1OC [Example 39, 5-(4-(4-(Dimethylamino)butyl)-2-methoxybenzyl)-6-methyl-N^4-pentylpyrimidine-2,4-diamine]"
